According to patent publication US10421718B2, “EBNA1 inhibitors and their method of use” (priority 2013, dated 2019):

Target: T1, His-EBNA1 (DNA binding domain of EBNA1, amino acids 459-607) (Epstein-Barr virus, UniProt P03211)
T1 construct: made in house; host or cells: E. coli
Experiment: Inhibition of 5′-biotin-oPL4624 binding to His-EBNA1 using Alpha Screen technology
Details: Alpha Screen Activity (IC50, inhibition of 5′-biotin-oPL4624 binding to His-EBNA1), 15 nM His-EBNA1, 0.2 nM bt-oPL4624, 2 hr room temperature
Method: Inhibition of 5′-biotin-oPL4624 binding to His-EBNA1 using Alpha Screen technology: Assays were performed using the DNA binding domain of EBNA1 (amino acids 459-607), which was His-tagged (His-EBNA1) and the self-complementary biotinylated (bt) oligonucleotide with the sequence 5′-bt-[…]-ATGCTACCC-3′ (bt-oPL4624). The protein was expressed in E. coli and purified according to Barwell, et al. (Barwell J A, Bochkarev A, Pfuetzner R A, Tong H, Yang D S, Frappier L, Edwards A M. (1995) Overexpression, purification, and crystallization of the DNA binding and dimerization domains of the Epstein-Barr virus nuclear antigen 1. J Biol Chem. 270: 20556-9.). The bt-oPL4624 oligonucleotide was purchased from Integrated DNA Technologies, Inc (IDT). AlphaScreen donor, acceptor beads and white, opaque 384-well assay plates were purchased from PerkinElmer, Inc.
Assays contained 15 nM His-EBNA1, 0.2 nM bt-oPL4624, 5 μg/mL AlphaScreen streptavidin donor beads and nickel chelate acceptor beads, and a series of concentrations of test compound ranging from 3.2 nM to 100 μM in a total volume of 40 μL assay buffer (25 mM Tris, pH 7.2, 160 mM NaCl, 1 mM MgCl2). His-EBNA1 (30 nM) and bt-oPL4624 (0.4 nM) were preincubated with 10 μg/mL nickel chelate AlphaScreen acceptor bead, or 10 μg/mL streptavidin AlphaScreen donor bead, respectively, for 30 minutes at room temperature in assay buffer. Twenty microliters of His-EBNA1/acceptor bead mix and bt-oPL4624/donor bead mix were transferred to assay plates containing […] of 1:3 serial dilutions of test compounds previously prepared in DMSO at concentrations ranging from 0.32 μM to 10 mM. Nonspecific binding was determined with 5 μg/mL AlphaScreen acceptor bead in the absence of His-EBNA1. After 2 hr incubation at room temperature, the AlphaScreen signal was measured on the Envision plate reader (PerkinElmer, Inc.) at 680 nm excitation and 570 nm emission. Inhibition values at each concentration of test compound were determined by setting 100% equal to raw data values in the absence of EBNA1 and 0% equal to the raw data values in the presence of EBNA1. Nonlinear regression fits of the inhibition values to a one-site dose-response equation were performed using GraphPad Prism.

T1 sequence (P03211 459-607): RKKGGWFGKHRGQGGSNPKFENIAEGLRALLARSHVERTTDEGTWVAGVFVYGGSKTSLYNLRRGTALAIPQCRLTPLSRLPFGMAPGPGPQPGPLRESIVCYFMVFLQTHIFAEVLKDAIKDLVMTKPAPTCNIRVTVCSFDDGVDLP

Structure (SMILES) | IC50 [µM]
O=C(O)c1cccc(C#Cc2ccc(CO)cc2)c1-n1cccc1 [Entry 20, 3-{2-[4-(hydroxymethyl)phenyl]ethynyl}-2-(1H-pyrrol-1-yl)benzoic acid] | < 1
Cc1ccc(C#Cc2cccc(C(=O)O)c2-n2c(C)ccc2C)cc1 [Entry 21, 2-(2,5-dimethyl-1H-pyrrol-1-yl)-3-[2-(4-methylphenyl)ethynyl]benzoic acid] | < 1
Cc1ccc(C)n1-c1c(C#Cc2cccc(O)c2)cccc1C(=O)O [Entry 22, 2-(2,5-dimethyl-1H-pyrrol-1-yl)-3-[2-(3-hydroxyphenyl)ethynyl]benzoic acid] | < 1
O=C(O)c1cccc(C#Cc2ccc3c(c2)NCC3)c1-n1cccc1 [Entry 23, 3-[2-(2,3-dihydro-1H-indol-6-yl)ethynyl]-2-(1H-pyrrol-1-yl)benzoic acid] | < 1
Cn1cc(C#Cc2cccc(C(=O)O)c2-n2cccc2)cn1 [Entry 24, 3-[2-(1-methyl-1H-pyrazol-4-yl)ethynyl]-2-(1H-pyrrol-1-yl)benzoic acid] | 1 to 10
Cc1nc(C#Cc2cccc(C(=O)O)c2-n2cccc2)cn1C [Entry 25, 3-[2-(1,2-dimethyl-1H-imidazol-4-yl)ethynyl]-2-(1H-pyrrol-1-yl)benzoic acid] | 10 to 100
Cn1cncc1C#Cc1cccc(C(=O)O)c1-n1cccc1 [Entry 26, 3-[2-(1-methyl-1H-imidazol-5-yl)ethynyl]-2-(1H-pyrrol-1-yl)benzoic acid] | 10 to 100
Cn1ccnc1C#Cc1cccc(C(=O)O)c1-n1cccc1 [Entry 27, 3-[2-(1-methyl-1H-imidazol-2-yl)ethynyl]-2-(1H-pyrrol-1-yl)benzoic acid] | 10 to 100
O=C(O)c1cccc(C#Cc2cncs2)c1-n1cccc1 [Entry 28, 2-(1H-pyrrol-1-yl)-3-[2-(1,3-thiazol-5-yl)ethynyl]benzoic acid] | 10 to 100
O=C(O)c1cccc(C#Cc2cscn2)c1-n1cccc1 [Entry 29, 2-(1H-pyrrol-1-yl)-3-[2-(1,3-thiazol-4-yl)ethynyl]benzoic acid] | < 1
O=C(O)c1cccc(C#Cc2ccc3cc[nH]c3n2)c1-n1cccc1 [Entry 30, 2-(1H-pyrrol-1-yl)-3-(2-{1H-pyrrolo[2,3-b]pyridin-6-yl}ethynyl)benzoic acid] | 1 to 10
CC(C)(O)c1cccc(C#Cc2cccc(C(=O)O)c2-n2cccc2)c1 [Entry 31, 3-{2-[3-(2-hydroxypropan-2-yl)phenyl]ethynyl}-2-(1H-pyrrol-1-yl)benzoic acid] | 1 to 10
CC(C)C(O)C#Cc1cccc(C(=O)O)c1-n1cccc1 (stereo not drawn) [Entry 32, 3-(3-hydroxy-4-methylpent-1-yn-1-yl)-2-(1H-pyrrol-1-yl)benzoic acid] | 1 to 10
O=C(O)c1cccc(C#CC(O)c2ccccc2)c1-n1cccc1 (stereo not drawn) [Entry 33, 3-(3-hydroxy-3-phenylprop-1-yn-1-yl)-2-(1H-pyrrol-1-yl)benzoic acid] | < 1
O=C(O)c1cccc(C#Cc2c[nH]c3ncccc23)c1-n1cccc1 [Entry 34, 2-(1H-pyrrol-1-yl)-3-(2-{1H-pyrrolo[2,3-b]pyridin-3-yl}ethynyl)benzoic acid] | < 1
O=C(O)c1cccc(C#Cc2cccc3[nH]ccc23)c1-n1cccc1 [Entry 35, 3-[2-(1H-indol-4-yl)ethynyl]-2-(1H-pyrrol-1-yl)benzoic acid] | < 1
O=C(O)c1cccc(C#Cc2ccn3ncnc3c2)c1-n1cccc1 [Entry 36, 2-(1H-pyrrol-1-yl)-3-(2-{[1,2,4]triazolo[1,5-a]pyridin-7-yl}ethynyl)benzoic acid] | < 1
CN(C)S(=O)(=O)c1cccc(C#Cc2cccc(C(=O)O)c2-n2cccc2)c1 [Entry 37, 3-{2-[3-(dimethylsulfamoyl)phenyl]ethynyl}-2-(1H-pyrrol-1-yl)benzoic acid] | < 1
O=C(O)c1cccc(C#Cc2cc(O)cc(F)c2)c1-n1cccc1 [Entry 38, 3-[2-(3-fluoro-5-hydroxyphenyl)ethynyl]-2-(1H-pyrrol-1-yl)benzoic acid] | < 1
O=C(O)c1cccc(C#Cc2cccc(CO)c2)c1-n1cccc1 [Entry 39, 3-{2-[3-(hydroxymethyl)phenyl]ethynyl}-2-(1H-pyrrol-1-yl)benzoic acid] | < 1
O=C(O)c1cccc(C#Cc2cncc(O)c2)c1-n1cccc1 [Entry 40, 3-[2-(5-hydroxypyridin-3-yl)ethynyl]-2-(1H-pyrrol-1-yl)benzoic acid] | 10 to 100

Structure (SMILES) | IC50 [µM]
O=C(O)c1cccc(C#Cc2ccc3[nH]cnc3c2)c1-n1cccc1 [Entry 41] | 1 to 10
O=C(O)c1cccc(C#Cc2ccc3[nH]ccc3c2)c1-n1cccc1 [Entry 42, 3-[2-(1H-indol-5-yl)ethynyl]-2-(1H-pyrrol-1-yl)benzoic acid] | 1 to 10
O=C(O)c1cccc(C#Cc2ccc3cc[nH]c3c2)c1-n1cccc1 [Entry 43, 3-[2-(1H-indol-6-yl)ethynyl]-2-(1H-pyrrol-1-yl)benzoic acid] | < 1
Cc1ccc(C#Cc2cccc(C(=O)O)c2-n2cccc2)cc1 [Entry 44, 3-[2-(4-methylphenyl)ethynyl]-2-(1H-pyrrol-1-yl)benzoic acid] | < 1
O=C(O)c1cccc(C#Cc2cc(F)cc(F)c2)c1-n1cccc1 [Entry 45, 3-[2-(3,5-difluorophenyl)ethynyl]-2-(1H-pyrrol-1-yl)benzoic acid] | 1 to 10
O=C(O)c1cccc(C#Cc2cccc(OC(F)F)c2)c1-n1cccc1 [Entry 46, 3-{2-[3-(difluoromethoxy)phenyl]ethynyl}-2-(1H-pyrrol-1-yl)benzoic acid] | 1 to 10
C#Cc1cccc(C(=O)O)c1-n1cccc1 [Entry 47, 3-ethynyl-2-(1H-pyrrol-1-yl)benzoic acid] | 10 to 100
CC(C)(N)C#Cc1cccc(C(=O)O)c1-n1cccc1 [Entry 48, 3-(3-amino-3-methylbut-1-yn-1-yl)-2-(1H-pyrrol-1-yl)benzoic acid] | 100 to 1000
CC(C)(C)C#Cc1cccc(C(=O)O)c1-n1cccc1 [Entry 49, 3-(3,3-dimethylbut-1-yn-1-yl)-2-(1H-pyrrol-1-yl)benzoic acid] | 1 to 10
Cc1ccc(C)n1-c1c(C#Cc2ccccc2)cccc1C(=O)O [Entry 50, 2-(2,5-dimethyl-1H-pyrrol-1-yl)-3-(2-phenylethynyl)benzoic acid] | < 1
O=C(O)c1cncc(C#Cc2ccc(F)cc2)c1-n1cccc1 [Entry 51] | 1 to 10
O=C(O)c1cncc(C#Cc2ccccc2)c1-n1cccc1 [Entry 52, 5-(2-phenylethynyl)-4-(1H-pyrrol-1-yl)pyridine-3-carboxylic acid] | 10 to 100
NC1(C#Cc2cccc(C(=O)O)c2-n2cccc2)CCCCC1 [Entry 53, 3-[2-(1-aminocyclohexyl)ethynyl]-2-(1H-pyrrol-1-yl)benzoic acid trifluoroacetic acid] | < 1
O=C(O)c1cccc(C#CC2(O)CCCCC2)c1-n1cccc1 [Entry 54, 3-[2-(1-hydroxycyclohexyl)ethynyl]-2-(1H-pyrrol-1-yl)benzoic acid] | 1 to 10
CCCCC(CC)C(O)C#Cc1cccc(C(=O)O)c1-n1cccc1 (stereo not drawn) [Entry 55, 3-(4-ethyl-3-hydroxyoct-1-yn-1-yl)-2-(1H-pyrrol-1-yl)benzoic acid] | < 1
O=C(O)c1cccc(C#Cc2cn3ccnc3cn2)c1-n1cccc1 [Entry 56, 3-(2-{imidazo[1,2-a]pyrazin-6-yl}ethynyl)-2-(1H-pyrrol-1-yl)benzoic acid] | < 1
O=C(O)c1cccc(C#Cc2cccc(O)c2)c1-n1cccc1 [Entry 57, 3-[2-(3-hydroxyphenyl)ethynyl]-2-(1H-pyrrol-1-yl)benzoic acid] | < 1
O=C(O)c1cc(Cl)cc(C#Cc2ccc(F)cc2)c1-n1cccc1 [Entry 58, 5-chloro-3-[2-(4-fluorophenyl)ethynyl]-2-(1H-pyrrol-1-yl)benzoic acid] | 10 to 100
O=C(O)c1cc(Cl)cc(C#Cc2ccccc2)c1-n1cccc1 [Entry 59, 5-chloro-3-(2-phenylethynyl)-2-(1H-pyrrol-1-yl)benzoic acid] | 10 to 100
O=C(O)c1cc(F)cc(C#Cc2ccc(F)cc2)c1-n1cccc1 [Entry 60, 5-fluoro-3-[2-(4-fluorophenyl)ethynyl]-2-(1H-pyrrol-1-yl)benzoic acid] | 100 to 1000
O=C(O)c1cc(F)cc(C#Cc2ccccc2)c1-n1cccc1 [Entry 61, 5-fluoro-3-(2-phenylethynyl)-2-(1H-pyrrol-1-yl)benzoic acid] | 10 to 100
